{
  "source": "patent US10426815B2",
  "about": "“Prevention and treatment of itch with an MRGPR antagonist” (THE GENERAL HOSPITAL CORPORATION, priority 2015, dated 2019)",
  "key": {"[1]": {"tested_on": "WT DRGs", "test": "DRG culture and calcium imaging, WT mice", "format": "cell-based, mouse", "experimental": "Cervical to lumbar dorsal root ganglia (DRG) from C57/B6 or NK1 mice (1 month old) were dissected and maintained in DMEM (GIBCO, Langley, Okla., USA), containing […] L-glutamine (FISHER […], Pittsburgh, Pa., USA), 10% heat inactivated fetal bovine serum (GIBCO, Langley, Okla., USA), 5000 U/ml penicillin and 5000 μg/ml streptomycin (FISHER […], Pittsburgh, Pa., USA). Enzymatic digestion was carried out with 1 mg collagenase in 1 ml dispase (ROCHE Applied Sciences, IN, USA), at 37° C. for 70 min. The collagenase/dispase solution was removed, and DRGs were washed and suspended in DMEM containing 125 U DNAse (SIGMA, St Louis, USA) within which the ganglia were mechanically triturated using fire-polished glass pipettes. […] Cells were evaluated using a NIKON Eclipse Ti inverted microscope equipped with an Exi Aqua CCD camera (QIMAGING, British Columbia, Canada). Ca^2+ flux fluorescence was measured as an […] ratio at 340 nm and 380 nm (F340/380) (Lambda DG4, Sutter Instruments, Novato, Calif., US). The 340/380 ratiometric images were analyzed using NIKON Elements AR Software (NIKON, Melville, N.Y. USA). […]"}, "[2]": {"tested_on": "human LAD2 mast cells", "test": "Human LAD2 mast cell degranulation assay (β-hexosaminidase release)", "format": "cell-based", "conditions": "LAD2 cells preincubated with 100 μM QWF for 10 min", "experimental": "The human LAD2 mast cell line (from D. Metcalfe, National Institute of Allergy and Infectious Diseases, NIH, Bethesda, Md.) was cultured in StemPro-34 SFM medium (LIFE TECHNOLOGIES) supplemented with 2 mM L-glutamine, 100 U/ml penicillin, 100 μg/ml streptomycin, and 100 ng/ml recombinant human stem cell factor (PEPROTECH). The cells were maintained at 0.25-5×10^5 cells/ml at 37° C. and 5% CO2 and hemi-depleted each week.\nDegranulation was measured as described previously (36). In brief, LAD2 cells were preincubated with 100 μM QWF for 10 min before activation by agonists at indicated concentrations for 30 min. The level of mast cell degranulation was assessed by the release of β-hexosaminidase in mast cell granules, quantified by the level of its substrate p-nitrophenyl N-acetyl-β-D-glucosamide (PNAG) digested in a colorimetric assay."}},
  "data": [
    {"substance": "Boc-Gln-D-Trp(Formyl)-Phe benzyl ester trifluoroacetate [QWF]", "values": [
      {"measurement": "decrease of the response of WT DRGs to compound 48/80", "setting": "[1]", "result": "significantly decreases"},
      {"measurement": "inhibition of degranulation induced by SP", "setting": "[2]", "result": "significantly inhibits"},
      {"measurement": "inhibition of degranulation induced by atracurium", "setting": "[2]", "result": "significantly inhibits"},
      {"measurement": "inhibition of degranulation induced by ciprofloxacin", "setting": "[2]", "result": "significantly inhibits"},
      {"measurement": "inhibition of degranulation induced by compound 48/80", "setting": "[2]", "result": "significantly inhibits"}
    ]}
  ]
}
